≈ marks a conversion by molar mass, not a printed value. Like-named read-outs stand apart in the source and are kept apart here.

Common to all, as to format: cell-based
In data set [1] the test system is HIV-1 (strain RF). In words: Inhibition of syncytium formation in C8166 cells. The protocol: Inhibition of Syncytium Formation
C8166 cells were infected with HIV-1 (strain RF) at a moil of 1×10^−3 infectious units/cell and adsorbed at room temperature for 60 minutes. After adsorption, the cells were washed three times in growth medium. Aliquots of 10^5 cells were added to each well of 24-well plates containing serial dilution of test compounds at final concentrations of 50 μg/ml to 0.05 μg/ml in RPMI® 1640 growth medium. Untreated infected cells and untreated uninfected cells were also included as controls. The plates were incubated at 37° C./5% CO2 for 3-4 days in humidified containers. The cells were examined daily for evidence of HIV-1 induced syncytium formation. The syncytia were quantified by reference to the untreated infected controls, and the dose of compound required to reduce the cytopathic effect by 50% (ID50) was calculated.

The test system of data set [2] is HIV-1 HXB2D. The experiment in a line: IC50 in CBMCs with constructed virus HXB2D. The note with it: Human immunodeficiency virus 1, read-out: IC50 HXB2D. Here is the method: (§1) In short, viruses (HTLV-IIIB) that had initially been grown on MT-4 cells were passaged onto phytohemaglutinin-prestimulated cord blood mononuclear cells (CBM). For subsequent analysis, samples of CBM (5×10^5 cells per mL) were pretreated with various concentrations of the different compounds for 4 h and were then inoculated with CBL-grown HIV-1 at a multiplicity of infection of 1.0 in the concentration of the compound used for the pretreatment. Fresh medium, including the appropriate concentration of the compound was added three times weekly, and fresh phytohemaglutinin-prestimulated CBM (5×10^5 cells per mL) were added at 2-day intervals. The calculation of IC50 was determined on the basis of RT levels in culture fluids as described in Gao et al., (1992), J. Virol. 66: 12-19.
(§2) Determination of IC50 (μM) in Different Mutated Isolates of HIV-1 in the Presence of Different Antiviral Compounds
(§3) The procedure is similar to the procedure used in the CBM assay, with the exception that constructed virus and construted mutated virus were used.
(§4) The constructed virus HXB2D-65 correspond to the ddC resistance mutation and the constructed virus HXB2D-184 correspond to the 3TC™ and FTC resistance mutation.

Data set [3] deals with HIV-1 HXB2D-65 K→R (ddC resistance mutation). In words: IC50 in CBMCs with constructed mutated virus HXB2D-65. To be noted: Human immunodeficiency virus 1, read-out: IC50 HXB2D-65 K→R. The protocol:
as §1, §2, §3, §4

In data set [4] the test system is HIV-1 HXB2D-184 M→V (3TC™ and FTC resistance mutation). In words: IC50 in CBMCs with constructed mutated virus HXB2D-184. The note with it: Human immunodeficiency virus 1, read-out: IC50 HXB2D-184 M→V. Here is the method: as §1, §2, §3, §4
For data set [5], the system named is 2.2.15 cells (Hep G2 cells transfected with human hepatitis B virus genomic DNA). In words: Cytotoxicity (CD50) reported with HBV assay. The note with it: HBV table. The protocol: (§5) The method used for this test is described in detail in Korba et al., Antiviral research 15, 217-228 (1992) which is shortly described as follows: Hep G2 cells transfected with human hepatitis B virus genomic DNA (2.2.15 cells) were grown and maintained in RPMI-1640 culture medium containing %5 foetal bovine serum, 2 mM glutamine and 50 μg/ml gentamicin sulphate, and checked routinely for G418 resistance. Cultures of 2.2.15 cells were grown to confluence in 24 well tissue culture plates and maintained for 2 to 3 days in that condition prior to drug treatment.

In data set [6] the test system is human hepatitis B virus. The experiment in a line: Inhibition of human hepatitis B virus in 2.2.15 cells, extracellular HBV DNA. The note with it: 10 day treatment. Here is the method: Inhibition of Human Hepatitis B Virus.
as §5
Drugs were dissolved in sterile water or sterile 50% DMSO in water at concentrations 100-fold higher than the higher test concentration. These solutions were diluted as needed in culture medium.
The culture medium on the confluent cells was changed 24 hours prior to exposure to test compounds. During the 10 day treatment, the culture medium was changed daily. After 10 days of the treatment, the culture medium was collected and frozen at −70° C. for HBV DNA analysis. […]
A purified 3.2 kb EcoR1 HBV DNA fragment was labeled with [^32p]dCTP by nick translation and used as a probe to detect HBV DNA on the dot-blot by DNA hybridization. After washing, the hybridized blot was dried and ^32p was quantified using an Ambis beta scanner.

Setting [7] is: Human immunodeficiency virus 1, C8166 cells, HIV-1 strain RF, syncytium formation, 3-4 days, read-out: IC50 (dose reducing the cytopathic effect by 50%, ID50).

With `Nc1nc(=O)n([C@H]2CO[C@@H](CO)S2)cc1F` [compound 3, 2R-hydroxymethyl-4R-(5′-fluorocytosin-1′-yl)-1,3-oxathiolane], the IC50 in data set [1] (setting [7]) was determined as 0.17 µg/mL (≈ 0.688 µM); in data set [2] it was 3 µM; in data set [3], 11.5 µM; in data set [4], 9 µM.

Turning to `Nc1ccn([C@@H]2CO[C@H](CO)S2)c(=O)n1` [Compound #2, 2S-hydroxymethyl-4S-(cytosin-1′-yl)-1,3-oxathiolane], in data set [5], the “CD50 (HBV)” value was above 10 µg/mL. Moreover, the half-inhibitory concentration (IC50) in data set [1] (Human immunodeficiency virus 1, C8166, read-out: IC50 (dose reducing the cytopathic effect by 50%, ID50)) worked out at 0.08 µg/mL (≈ 0.349 µM); in data set [2], 0.1 µM; in data set [3], 3.5 µM; in data set [4] it was 3 µM. Further, the “ID50 (HBV)” value in data set [6] is 4 µg/mL (≈ 17.4 µM).

Regarding `Nc1nc(=O)n([C@@H]2CO[C@H](CO)S2)cc1F` [compound 4, 2S-hydroxymethyl-4S-(5′-fluorocytosin-1′-yl)-1,3-oxathiolane], the IC50 in data set [1] (setting [7]) turned out to be 0.03 µg/mL (≈ 0.121 µM); in data set [2], 3 µM; in data set [3], 6.5 µM; in data set [4], 2 µM.

The values are drawn from patent publication US6369066B1, “Substituted 1,3-oxathiolanes with antiviral properties” (BioChem Pharma, Inc., priority 1990, dated 2002).
